Where two headings read alike, the source gives them in different places.
Legend:
[1] = tested on: histamine-induced bronchoconstriction in the guinea pig; test: BD: bronchodilator activity against histamine-induced bronchoconstriction in the guinea pig; settings: for inhibition in vivo at 10 mg/kg / inhibition in vivo at 20 mg/kg / inhibition in vivo at 40 mg/kg / inhibition in vivo at 80 mg/kg / inhibition in vivo at 15 mg/kg / inhibition in vivo at 150 mg/kg / inhibition in vivo at 100 mg/kg / inhibition in vivo at 60 mg/kg: Cavia porcellus, po, read-out: BD (guinea pig), % protection; for lethal / bronchodilator effectiveness, in words / onset and duration of action, in words: guinea pig; for bronchodilator effectiveness, in words / onset and duration of action, in words: comparison with corresponding compound
From the text: BD Bronchodilator activity evaluated against histamine-induced bronchoconstriction in the guinea pig, and expressed as % protection at the stated time interval (in minutes and hours) post-drug against histamine agonist. Doses are expressed in milligrams per kilogram of body weight (mpk) per os (po) or intraperitoneally (ip).
A modification of the method of Siegmund. O.H., et al., J. Pharmacol. and Exp. Therap. 90:254-9, 1947, is used. Healthy guinea pigs weighing from 250 to 300 grams are placed four at a time and separated by wiring screening in an 11 liter plastic chamber, at the time of peak activity following drug administration. The challenge consists of histamine diphosphate (1% solution) aerosolized in a de Vilbiss -40 nebulizer at 200 mm Hg. Times for prostration are recorded.
Per cent protection is calculated as follows: [formula] wherein the times are measured in seconds.
In interpreting the BD data it should be noted that a dose giving less than 40-50% protection is not considered useful. Differences in percent protection of less than 10% are probably not significant.

[2] = tested on: antigen-induced bronchconstriction in rats sensitized with N. brasliensis; test: AA: antiallergy (anti-anaphylactic) activity against antigen-induced bronchoconstriction in sensitized rats
From the text: The animals are subdivided into control and test groups. Test animals receive a drug either orally, intraperitoneally or intravenously and are challenged with intravenous antigen at fixed time intervals after dosing. Antigen-induced increases in tracheal pressure are monitored and reflect the extent of bronchoconstriction.

[3] = tested on: guinea pig tracheal chain preparation; test: SP: spasmolytic activity in vitro, guinea pig tracheal chain preparation; settings: Cavia porcellus, read-out: SP in vitro C, molar concentration required to produce maximum relaxation
From the text: SP Spasmolytic activity evaluated in vitro using guinea pig tracheal chain preparation, and expressed as the molar (M) concentration required to produce maximum relaxation. The method used in that of Castillo and de Beer, J. Pharmac. Expt. Therap. 90, 104, 1947.

in vivo = test: in vivo
Description: (§1) The LD50 was determined in three species, the mouse (male, 18-25 g), the albino rat (female, 150-200 g) and the albino guinea pig (male 180-280 g) by oral administration and in the albino rat by intraperitoneal administration. The animals are fasted overnight prior to testing. Six groups of ten animals are used; five groups are dosed with the test substance, the sixth group serves as a control and receives the drug vehicle at the highest test concentration. The compounds were administered in a 0.5% gum tragacanth solution in distilled water using a constant logarithmic increment in dose. Dose volume ranged from […].
(§2) The animals were housed five per cage (rat and guinea pig) or ten per cage (mouse) with free access to food and water. The number of dead animals was recorded daily for five consecutive days. The total mortality per group of ten for each dose level was recorded and LD50 with Confidence Limits calculated according to the method described by Weil, C.

LD50 mouse = type: in vivo; settings: in vivo, po
Description: as §1, §2

[4] = tested on: histamine-induced bronchoconstriction in the dog; test: CP: cardiopulmonary activity against histamine-induced bronchoconstriction in the dog; type: in vivo; settings: histamine challenge
From the text: Pretreatment with bronchodilator drugs aims to block the bronchospastic response to histamine. Each dog serves as its own control.

[5] = tested on: passive cutaneous anaphylaxis in the rat; test: PCA: passive cutaneous anaphylaxis in the rat; type: in vivo
Description: PCA Antianaphylactic activity against passive cutaneous anaphylaxis in the rat, expressed as % protection against antigen-induced wheal formation.
The method used is that of Ogilvie, B. M., Immunology 12, 113-131 (1967). Reaginic […] antibodies develope in the rat following subcutaneous injection of Nippostrongylus brasiliensis larvae. Antisera, collected 28 days later are injected subcutaneously into new rats.

[6] = Rattus norvegicus, ip, 1 h, read-out: AA (rat), % protection
[7] = Rattus norvegicus, po, 1 h, read-out: AA (rat), % protection

CCOC(=O)n1c(C)nc2c1c(=O)n(C)c(=O)n2CC(C)CC (racemic) [Compound 4477, DL-1,8-dimethyl-3-(2-methyl-1-butyl)xanthine-7-carboxylic acid, ethyl ester]
inhibition in vivo at 10 mg/kg ([1]; 0.5 h): 47%
inhibition in vivo at 10 mg/kg ([1]; 1 h): 87%
inhibition in vivo at 10 mg/kg ([1]; 6 h): 50%

CCCOC(=O)n1c(C)nc2c1c(=O)n(C)c(=O)n2CC(C)CC (racemic) [Compound 4488, DL-1,8-dimethyl-3-(2-methyl-1-butyl)xanthine-7-carboxylic acid, n-propyl ester]
inhibition in vivo at 10 mg/kg ([1]; 1 h): 24%
inhibition in vivo at 20 mg/kg ([1]; 1 h): 78%
inhibition in vivo at 40 mg/kg ([1]; 1 h): 100%
inhibition in vivo at 10 mg/kg ([1]; 6 h): 44%
inhibition in vivo at 20 mg/kg ([1]; 6 h): 68%
inhibition in vivo at 40 mg/kg ([1]; 6 h): 89%
lethal ([1]; 80 mpK po): 1/4

CCc1nc2c(c(=O)n(C)c(=O)n2CC(C)CC)n1C(=O)OC (racemic) [Compound 4491, DL-1-methyl-3-(2-methyl-1-butyl)-8-ethyl-xanthine-7-carboxylic acid, methyl ester]
inhibition in vivo at 10 mg/kg ([1]; 1 h): 25%
inhibition in vivo at 40 mg/kg ([1]; 1 h): 52%

CCC(C)Cn1c(=O)n(CC)c(=O)c2c1nc(C)n2C(=O)OC (racemic) [Compound 4494, DL-1-ethyl-3-(2-methyl-1-butyl)-8-methylxanthine-7-carboxylic acid, methyl ester]
inhibition in vivo at 10 mg/kg ([1]; 1 h): 0%
inhibition in vivo at 40 mg/kg ([1]; 1 h): 9%
inhibition in vivo at 10 mg/kg ([1]; 6 h): 49%
inhibition in vivo at 40 mg/kg ([1]; 6 h): 80%
lethal ([1]; 80 mpK po): 2/2

CCc1nc2c(c(=O)n(CC)c(=O)n2CC(C)CC)n1C(=O)OC (racemic) [Compound 4498, DL-1,8-diethyl-3-(2-methyl-1-butyl)xanthine-7-carboxylic acid, methyl ester]
inhibition in vivo at 40 mg/kg ([1]; 1 h): 15%
inhibition in vivo at 80 mg/kg ([1]; 1 h): 63%
inhibition in vivo at 40 mg/kg ([1]; 6 h): 38%
inhibition in vivo at 80 mg/kg ([1]; 6 h): 79%

CCCC(C)Cn1c(=O)n(C)c(=O)c2c1nc(C)n2C(=O)OC (racemic) [Compound 4515, DL-1,8-dimethyl-3-(2-methyl-1-pentyl)xanthine-7-carboxylic acid, methyl ester]
inhibition in vivo at 20 mg/kg ([1]; 1 h): 7%
inhibition in vivo at 40 mg/kg ([1]; 1 h): 100%

CC(C)Cn1c(=O)n(C)c(=O)c2[nH]cnc21 [Compound 4258, 1-methyl-3-(isobutyl)xanthine]
inhibition in vivo at 15 mg/kg ([1]; 0.5 h): 45%
inhibition in vivo at 15 mg/kg ([1]; 1 h): 75%
lethal ([1]; 25 mpK po): 2/4
AA (rat), toxicity ([2]; 2.0 mpK ip, 1h): tox
inhibition in vivo at […] [2, 6]: 79%

COC(=O)n1cnc2c1c(=O)n(C)c(=O)n2C [Compound 4260, 1,3-dimethylxanthine-7-carboxylic ester, methyl ester]
inhibition in vivo at 80 mg/kg ([1]; 0.5 h): 99%
inhibition in vivo at 80 mg/kg ([1]; 1 h): 100%
inhibition in vivo at 80 mg/kg ([1]; 2 h): 86%
inhibition in vivo at 80 mg/kg ([1]; 4 h): 95%
inhibition in vivo at 80 mg/kg ([1]; 6 h): 0%
bronchodilator effectiveness, in words [1]: clearly superior to theophylline at the same dose (80 mpK)
onset and duration of action, in words [1]: more potent, with both faster onset and longer duration of action
bronchodilator effectiveness, in words ([1]; listed as 1,3-dimethyl-7-carbomethoxyxanthine): significantly more effective than theophylline itself
EC (maximum relaxation) [3]: 50000 µM
inhibition in vivo at 75 mg/kg [2, 6]: 82%

COC(=O)n1cnc2c1c(=O)n(C)c(=O)n2CC(C)C [Compound 4274, 1-methyl-3-(isobutyl)xanthine-7-carboxylic acid, methyl ester]
inhibition in vivo at 15 mg/kg ([1]; 0.5 h): 92%
inhibition in vivo at 15 mg/kg ([1]; 1 h): 87%
inhibition in vivo at 15 mg/kg ([1]; 2 h): 64%
inhibition in vivo at 15 mg/kg ([1]; 4 h): 18%
lethal ([1]; 40 mpK po): 1/6
bronchodilator effectiveness, in words [1]: greater protection than 4258 at equal doses
EC (maximum relaxation) [3]: 500 µM
inhibition in vivo at 5 mg/kg [2, 6]: 74%

Cc1nc2c([nH]1)c(=O)n(C)c(=O)n2C [Compound 4296, 1,3,8-trimethylxanthine]
inhibition in vivo at 150 mg/kg ([1]; 0.5 h): 68%
inhibition in vivo at 100 mg/kg ([1]; 1 h): 53%
inhibition in vivo at 150 mg/kg ([1]; 1 h): 80%
inhibition in vivo at 150 mg/kg ([1]; 2 h): 71%
inhibition in vivo at 100 mg/kg ([1]; 4 h): 45%
inhibition in vivo at 150 mg/kg ([1]; 4 h): 79%
inhibition in vivo at 100 mg/kg ([1]; 6 h): 43%
inhibition in vivo at 150 mg/kg ([1]; 6 h): 86%
inhibition in vivo at 100 mg/kg ([1]; 10 h): 23%
inhibition in vivo at 150 mg/kg ([1]; 10 h): 85%
inhibition in vivo at 75 mg/kg [2, 6]: 49%

CCCC(C)Cn1c(=O)n(C)c(=O)c2c1ncn2C(=O)OC (stereo not drawn) [Compound 4377]
inhibition in vivo at 20 mg/kg ([1]; 1 h): 64%
inhibition in vivo at 80 mg/kg ([1]; 1 h): 72%
inhibition in vivo at 80 mg/kg ([1]; 4 h): 0%

COC(=O)n1c(C)nc2c1c(=O)n(C)c(=O)n2C [Compound 4378, 1,3,8-trimethylxanthine-7-carboxylic acid, methyl ester]
inhibition in vivo at 60 mg/kg ([1]; 1 h): 96%
inhibition in vivo at 60 mg/kg ([1]; 4 h): 95%
inhibition in vivo at 60 mg/kg ([1]; 6 h): 89%
onset and duration of action, in words [1]: effective at lower doses and for longer duration
EC (maximum relaxation) [3]: 100000 µM
inhibition in vivo at 75 mg/kg [2, 6]: 54%

CCC(C)Cn1c(=O)n(C)c(=O)c2c1ncn2C(=O)OC (stereo not drawn) [Compound 4380, 1-methyl-3-(2-methyl-1-butyl)xanthine-7-carboxylic acid, methyl ester]
BD (guinea pig), % protection ([1]; 20 mpK po, 1h): 64%
inhibition in vivo at 20 mg/kg ([1]; 1 h): 64%
inhibition in vivo at 40 mg/kg ([1]; 1 h): 99%
inhibition in vivo at 40 mg/kg ([1]; 4 h): 57%
inhibition in vivo at 40 mg/kg ([1]; 6 h): 12%
EC (maximum relaxation) [3]: 1430 µM
inhibition in vivo at 5 mg/kg [2, 7]: 66%

CCC(C)Cn1c(=O)n(C)c(=O)c2[nH]c(C)nc21 (stereo not drawn) [Compound 4383, 1,8-dimethyl-3-(2-methyl-1-butyl)xanthine]
BD (guinea pig), % protection ([1]; 10 mpK po, 30'): 35%
BD (guinea pig), % protection ([1]; 20 mpK po, 4h): 100%
BD (guinea pig), % protection ([1]; 20 mpK po, 6h): 97%
inhibition in vivo at 10 mg/kg ([1]; 1 h): 63%
LD50 (in vivo; in vivo, rat, po): 887 mg/kg
LD50 (LD50 mouse): 60.6 mg/kg

COC(=O)n1c(C)nc2c1c(=O)n(C)c(=O)n2CC(C)C [Compound 4390, 1,8-dimethyl-3-isobutylxanthine-7-carboxylic acid, methyl ester]
cardiopulmonary / bronchodilator activity in the dog, in words [4]: significantly reduce the decrease in pulmonary compliance and increase in pulmonary resistance due to histamine administration
Wheal Diameter, % Δ ([5]; 20 mg/kg po): 60%
Wheal Diameter, Response (Mean ± S.E.M.) ([5]; 20 mg/kg po): 0.74 ± 0.21 cm
Wheal Intensity, % Δ ([5]; 20 mg/kg po): 53%
Wheal Intensity, Response (Mean ± S.E.M.) ([5]; 20 mg/kg po): 1.10 ± 0.23
antiallergy activity, in words ([5]; rat passive cutaneous anaphylaxis): effective antiallergy agents
inhibition in vivo at 10 mg/kg ([1]; 0.5 h): 49%
inhibition in vivo at 10 mg/kg ([1]; 1 h): 86%
inhibition in vivo at 10 mg/kg ([1]; 6 h): 79%
inhibition in vivo at 10 mg/kg ([1]; 10 h): 48%
lethal ([1]; 20 mpK po): 1/2
onset and duration of action, in words [1]: effective at lower doses and for longer duration
EC (maximum relaxation) [3]: 1000 µM
inhibition in vivo at 2 mg/kg [2, 6]: 60%
inhibition in vivo at 4 mg/kg [2, 6]: 52%
inhibition in vivo at 2.5 mg/kg [2, 7]: 77%
LD50 (in vivo; guinea pig, po): 25.2 mg/kg
LD50 (in vivo; in vivo, rat, ip): 9.1 mg/kg
LD50 (in vivo; in vivo, rat, po): 33.5 mg/kg
LD50 (LD50 mouse): 27.6 mg/kg

COC(=O)n1c(C)nc2c1c(=O)n(C)c(=O)n2CCC(C)C [Compound 4505, 1,8-dimethyl-3-isopentylxanthine-7-carboxylic acid, methyl ester]
lethal ([1]; 80 mpK po): 3/5

CCCCCn1c(=O)n(C)c(=O)c2c1nc(C)n2C(=O)OC [Compound 4507, 1,8-dimethyl-3-n-pentylxanthine-7-carboxylic acid, methyl ester]
inhibition in vivo at 10 mg/kg ([1]; 1 h): 26%
inhibition in vivo at 20 mg/kg ([1]; 1 h): 52%
inhibition in vivo at 40 mg/kg ([1]; 1 h): 100%
inhibition in vivo at 40 mg/kg ([1]; 6 h): 63%
lethal ([1]; 80 mpK po): 2/2
